Laboratory results reported in US8268836B2, “Compound useful as a c-Met inhibitor” (Eli Lilly and Company, priority 2010, dated 2012).
Like-named read-outs stand apart in the source and are kept apart here.

Tests used:
99 kinases = assay: Cerep Express Diversity Kinase Profile screening; type: biochemical
Description: The Express Diversity Kinase Profile™ is a screening service developed by Cerep SA (Paris, France). Details of assay conditions and/or contact information can be found on their website http://www.cerep.fecerep/users/pages/catalog/profiles/catalog.asp).

[1] = Plasma concentration in IVTI studies; type: in vivo; settings: athymic nude, mouse, oral, 10% acacia
Description: In IVTI studies, each compound is administered orally and formulated in 10% w/v acacia. Mouse blood samples are collected with anti-coagulant (EDTA-purple top Vacutainer tube) post-dose using cardiac puncture techniques. Tubes are inverted for 3-5 times and are placed on ice until centrifugation at 3000 RPM (1800×g) for 10 min at 4° C. to obtain plasma. Aliquots of plasma are pipetted and stored in a clean 96 well plate. Plasma samples are stored immediately at −80° C. Shipments of plasma samples are packed in dry ice and samples are frozen at −80° C. until analysis.
A 0.1-mg/mL stock solution of each drug was prepared and is serially diluted into pooled mouse plasma to prepare standards ranging from 1 to 5000 ng/mL. Plasma standards or samples (0.025 mL) in 96-well plates are treated by protein precipitation with the addition of a 0.1-0.2 ml of methanol: acetonitrile (1/1, v/v) containing internal standard. […] Samples and standards are analyzed with a Sciex API 4000 Triple Quadrupole Mass Spectrometer (Sciex, Division of MDS Inc., Toronto, Canada) coupled to a Shimadzu HPLC System (LC-10AD, Shimadzu Corporation) and a Gilson 215 Autosampler. […] Quantitation is performed using multiple reaction monitoring (MRM) at the following transitions: Example 1 (m/z 363.05 to m/z 163.10) and the reference compound 20 (m/z 363.05 to m/z 163.10). […]

cMet enzyme = cMet enzyme (Homo sapiens, UniProt P08581); assay: cMet Homogeneous Time Resolved Fluorescence (HTRF) in vitro assay; type: biochemical; settings: relative IC50; read-out: c-Met IC50 (HTRF)
Chain of cMet enzyme (P08581 25-1390): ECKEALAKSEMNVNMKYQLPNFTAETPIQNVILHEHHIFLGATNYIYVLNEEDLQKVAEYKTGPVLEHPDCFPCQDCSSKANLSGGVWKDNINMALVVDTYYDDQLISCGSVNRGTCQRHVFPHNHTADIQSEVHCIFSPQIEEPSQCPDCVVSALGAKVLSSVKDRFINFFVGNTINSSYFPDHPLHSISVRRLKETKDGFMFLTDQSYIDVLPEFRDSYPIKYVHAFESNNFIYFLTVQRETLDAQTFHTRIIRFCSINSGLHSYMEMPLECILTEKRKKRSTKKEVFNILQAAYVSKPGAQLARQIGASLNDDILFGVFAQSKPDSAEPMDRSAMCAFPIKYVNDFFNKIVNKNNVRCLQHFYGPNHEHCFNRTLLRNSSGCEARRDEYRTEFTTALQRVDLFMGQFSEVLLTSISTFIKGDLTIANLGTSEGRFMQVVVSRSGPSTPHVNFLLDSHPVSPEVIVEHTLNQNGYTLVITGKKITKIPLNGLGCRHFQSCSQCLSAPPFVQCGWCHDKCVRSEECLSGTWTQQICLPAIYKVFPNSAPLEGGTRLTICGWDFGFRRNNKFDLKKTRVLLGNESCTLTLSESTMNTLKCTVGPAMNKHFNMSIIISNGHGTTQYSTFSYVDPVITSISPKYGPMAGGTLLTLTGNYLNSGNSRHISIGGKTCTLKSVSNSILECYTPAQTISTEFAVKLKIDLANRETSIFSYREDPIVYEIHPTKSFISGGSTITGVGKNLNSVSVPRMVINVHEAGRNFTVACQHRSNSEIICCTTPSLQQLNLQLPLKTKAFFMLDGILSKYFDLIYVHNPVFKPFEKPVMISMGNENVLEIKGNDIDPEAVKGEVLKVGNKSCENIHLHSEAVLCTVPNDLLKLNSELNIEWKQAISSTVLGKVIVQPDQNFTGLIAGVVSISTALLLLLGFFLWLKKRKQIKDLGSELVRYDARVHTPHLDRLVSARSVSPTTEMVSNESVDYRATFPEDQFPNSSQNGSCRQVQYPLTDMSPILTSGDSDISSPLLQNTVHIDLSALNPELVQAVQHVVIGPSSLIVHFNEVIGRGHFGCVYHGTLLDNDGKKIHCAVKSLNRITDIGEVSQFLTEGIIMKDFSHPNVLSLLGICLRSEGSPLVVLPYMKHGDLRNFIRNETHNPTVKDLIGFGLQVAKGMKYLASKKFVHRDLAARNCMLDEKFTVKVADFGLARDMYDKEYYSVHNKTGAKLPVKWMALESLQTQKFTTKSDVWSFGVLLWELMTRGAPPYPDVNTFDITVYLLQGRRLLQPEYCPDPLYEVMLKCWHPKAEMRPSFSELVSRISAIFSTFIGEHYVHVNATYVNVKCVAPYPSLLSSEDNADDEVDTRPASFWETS
Description: This assay is based on HTRF technology and it is used to detect the phosphorylation of biotin labeled tyrosine peptide by cMet enzyme. After the reaction is completed, XL665 labeled streptavidin is used to recognize the biotin unit and a Europium (Eu3+) labeled anti-phospho-tyrosine antibody is used to recognize the phosphorylated tyrosine. The detection process relies on the transfer of energy between the excited Eu3+ and the XL665 labeled streptavidin. The aim of this protocol is to calculate the ability of test compounds to inhibit the phosphorylation of the product of this reaction and calculate their relative IC50 values.
A reference compound, if desired, may be prepared as a 1 mM stock solution in 100% DMSO and test compounds are prepared as 10 mM stock solutions in 100% DMSO. 1 mM reference compound and 10 mM test compounds are pre-diluted to 8 μM and 80 μM 10% DMSO solutions in a 96-well dilution plate. Compounds are serially diluted (1:3) using Tecan Freedom EVO 200 and 10-point dilution curves are generated for each of the compounds tested. 10 μL of serially diluted compounds are transferred to a 96-well assay plate using Temo (Tecan). […] The assay plate is incubated at RT for 60 min before reading the fluorescence signals at 620 nm emission and 665 nm […] in a Victor3 instrument (PerkinElmer Corporation). […]

[2] = test system: KP4 pancreatic xenografts; assay: Xenograft tumor model KP4; type: in vivo, mice
Description: Human glioblastoma cells U87MG, human gastric cancer cells MKN45, or human pancreatic KP4 cells are cultured and implanted subcutaneously in the rear flank of female CD-1 nu/nu strain mice which have been acclimated for one week in the animal facility after receipt from the vendor. Mice are randomized into groups of 10 mice per group. Testing compound is prepared in an appropriate vehicle and is administered by oral gavage when tumors are established (7-21 days after implant, or when the mean tumor volume reaches ˜100 mm^3). Tumor response is determined by tumor volume measurement performed twice a week during the course of treatment. Fluctuations in body weight are also monitored as a general measurement of toxicity. The compound of example 1 is orally administered twice a day for 28 days.
For statistical analysis, the individual subject tumor volumes are transformed to log volume and are analyzed with a two-way repeated measures analysis of variance by time and treatment using the MIXED procedures in SAS software (version 8.2). The correlation model for the repeated measures is spatial power. Treated groups are compared to the control group at the final time point. The MIXED procedure is also used separately for each treatment group to calculate adjusted means and standard errors at each time point. Both analyses account for the autocorrelation within each subject.

SMILES: Cn1cc(-c2ccc3nnc(Sc4ccc5nn(C)cc5c4)n3n2)cn1 [Example 1, 6-(1-Methyl-1H-pyrazol-4-yl)-3-(2-methyl-2H-indazol-5-ylthio)-[1,2,4]triazolo[4,3-b]pyridazine]
- Kinases inhibited in Cerep screening of 99 kinases (99 kinases): inhibited only c-Met
- concentration at 8 h ([1]; 8 mg/kg, read-out: Plasma conc. 8 mg/Kg after 8 h): 141 ng/mL
- concentration at 8 h ([1]; 20 mg/kg, read-out: Plasma conc. 20 mg/Kg after 8 h): 318 ng/mL
- IC50 (cMet enzyme): 10 nM
- Mean Tumor Volume ± Standard Error ([2]; 2 mg/kg oral twice a day for 28 days): 1229 ± 83 mm^3
- Mean Tumor Volume ± Standard Error ([2]; 4 mg/kg oral twice a day for 28 days): 1085 ± 256 mm^3
- Mean Tumor Volume ± Standard Error ([2]; 8 mg/kg oral twice a day for 28 days): 627 ± 74 mm^3
- Mean Tumor Volume ± Standard Error ([2]; 16 mg/kg oral twice a day for 28 days): 554 ± 47 mm^3
- Mean Tumor Volume ± Standard Error ([2]; 32 mg/kg oral twice a day for 28 days): 273 ± 42 mm^3
